The text below walks through data of ChEMBL document CHEMBL1152157, “Total synthesis and biological evaluation of potent analogues of dictyostatin: modification of the C2-C6 dienoate region” (Bioorg Med Chem Lett, 2008).

What all share (format): functional, cell-based
In one experiment the test system is ASPC1. Briefly: Cytotoxicity against taxol-sensitive human AsPC1 cells after 72 hrs by MTT assay. The settings on record: ASPC1, 72 h.
The test system of a further experiment is DLD-1. The experiment in a line: Cytotoxicity against taxol-sensitive human DLD1 cells after 72 hrs by MTT assay. The settings on record: DLD-1, 72 h. A general note: Formazan colour is commonly taken as a measure of viable cells.
Experiment [1] deals with PANC-1. The experiment in a line: Cytotoxicity against taxol-sensitive human PANC1 cells after 72 hrs by MTT assay. The note with it: PANC-1, 72 h.
For a further experiment, the system named is NCI/ADR-RES. The experiment in a line: Cytotoxicity against taxol-resistant human NCI/ADR-RES cells after 72 hrs by MTT assay.
In experiment [2] the test system is PANC-1. Briefly: Cell cycle arrest in human PANC1 cells by accumulation in G2/M phase.
For experiment [3], the system named is PANC-1. The experiment in a line: Induction of microtubule stabilization in human PANC1 cells assessed as formation of dense intracellular microtubule bundles.

The structures appear in SMILES notation. The source made the active and inactive calls. The rule behind the calls is not given here.

Take `C=C/C=C\[C@H](C)[C@@H]1OC(=O)/C=C\C=C\C[C@@H](O)C[C@H](O)/C=C\[C@H](C)[C@H](O)[C@@H](C)C[C@@H](C)CC[C@@H](O)[C@@H]1C`: the IC50 – broadly, the concentration needed to halve the response being measured – with ASPC1 came out at 0.056 µM; with DLD-1 it was 0.0081 µM; with PANC-1 [1], 0.017 µM; with NCI/ADR-RES, 0.043 µM. Besides, the outcome with PANC-1 [2] and in the experiment on PANC-1 [3] was Active.
Consider `C=C/C=C\[C@H](C)[C@@H]1OC(=O)/C=C\C=C\[C@@H](C)[C@@H](O)C[C@H](O)/C=C\[C@H](C)[C@H](O)[C@@H](C)C[C@@H](C)CC[C@@H](O)[C@@H]1C` [DICTYOSTATIN], for which the IC50 in the experiment with ASPC1 is 0.0062 µM; in the experiment with DLD-1, 0.0022 µM; with PANC-1 [1] it was 0.0042 µM; with NCI/ADR-RES it was 0.0066 µM.
`C=C/C=C\[C@H](C)[C@@H]1OC(=O)CC/C=C/[C@@H](C)[C@@H](O)C[C@H](O)/C=C\[C@H](C)[C@H](O)[C@@H](C)C[C@@H](C)CC[C@@H](O)[C@@H]1C`: the IC50 was 0.094 µM in the experiment on ASPC1, 0.022 µM in the experiment on DLD-1, 0.042 µM in the experiment with PANC-1 [1] and 0.066 µM with NCI/ADR-RES. For the same molecule, the outcome in the experiment with PANC-1 [2] and in the experiment on PANC-1 [3] was Active.
As to `C=C/C=C\[C@H](C)[C@@H]1OC(=O)CCCC[C@@H](C)[C@@H](O)C[C@H](O)/C=C\[C@H](C)[C@H](O)[C@@H](C)C[C@@H](C)CC[C@@H](O)[C@@H]1C`, the IC50 with ASPC1 is 0.12 µM; in the experiment with DLD-1, 0.055 µM; in the experiment on PANC-1 [1], 0.064 µM; with NCI/ADR-RES, 0.13 µM. The result in the experiment on PANC-1 [2] and with PANC-1 [3] was Active.
Molecule `C=C/C=C\[C@H](C)[C@H](OC(N)=O)[C@@H](C)[C@H](O)[C@@H](C)C/C(C)=C\[C@H](C)[C@@H](O)[C@@H](C)/C=C\[C@@H](O)C[C@@H]1OC(=O)[C@H](C)[C@@H](O)[C@H]1C` [DISERMOLIDE] registered an IC50 in the experiment on NCI/ADR-RES of 0.16 µM.
For the molecule `CC(=O)O[C@H]1C(=O)[C@@]2(C)[C@H]([C@H](OC(=O)c3ccccc3)[C@]3(O)C[C@H](OC(=O)[C@H](O)[C@@H](NC(=O)c4ccccc4)c4ccccc4)C(C)=C1C3(C)C)[C@]1(OC(C)=O)CO[C@@H]1C[C@@H]2O` [PACLITAXEL], the IC50 was found to be 0.089 µM with ASPC1, 0.022 µM in the experiment on DLD-1, 0.0099 µM with PANC-1 [1] and 1.3 µM in the experiment on NCI/ADR-RES.
